Assay results reported in US10494338B2, “Prostaglandin derivative” (AGC INC., priority 2016, dated 2019).

Each compound was assayed on rat platelet aggregation (assay: Inhibitory action on rat platelet aggregation in vitro (ADP-induced, platelet-rich plasma)). Details: SD rat PRP, ADP 2 μmol/L; relative activity from IC50, activity of IC50 value of PGE1 = 100.
Format: cell-based
Method: Experimental Example 2: Evaluation of Inhibitory Action on Rat Platelet Aggregation In Vitro (1) Preparation of Rat Platelet-Rich Plasma In the same manner as in the above-mentioned Experimental Example 1(1), blood samples were collected from the abdominal artery of 8- to 9-week-old male SD rats. PRP was diluted with PPP and the number of platelet was adjusted to 63.2×10^4/μL. (2) Measurement of Platelet Aggregation Ability In the same manner as in the above-mentioned Experimental Example 1(2) except that the final concentration of ADP was 2 μmol/L, the compound of the present invention, prostaglandin E1 (PGE1:positive control substance) or vehicle control was added as a test substance, and the maximum response of aggregation was measured. (3) Evaluation of Platelet Aggregation Inhibitory Action In the same manner as in the above-mentioned Experimental Example 1(3), IC50 values were determined from the aggregation inhibition ratio of the test substance, and the relative activity (%) of each test substance was calculated by defining the activity of IC50 value of PGE1 as 100.

Row | SMILES | Relative activity (%)
1 | CCC#CC[C@H](C)C(O)/C=C/[C@H]1[C@H](O)CC(=O)[C@@H]1CCSC/C=C/C(=O)OC (mixture of isomers) [compound (1)-2, methyl (2E)-4-((2-((1R,2R,3R)-3-hydroxy-2-((1E,3RS,4S)-3-hydroxy-4-methylnon-1-en-6-yn-1-yl)-5-oxocyclopentyl)ethyl)thio)but-2-enoate] | 62
2 | CCCCC[C@H](O)/C=C/[C@H]1[C@H](O)CC(=O)[C@@H]1CCCCCCC(=O)O [PGE1, prostaglandin E1, reference compound] | 100
3 | CCC#CC[C@H](C)C(O)/C=C/[C@H]1[C@H](O)CC(=O)[C@@H]1CCCCCCC(=O)OC (stereo partly drawn) [compound (1)-3, methyl ((1R,2R,3R)-3-hydroxy-2-((1E,3RS,4S)-3-hydroxy-4-methylnon-1-en-6-yn-1-yl)-5-oxocyclopentyl)heptanoate] | 2175
4 | CCC#CC[C@H](C)[C@H](O)/C=C/[C@H]1[C@H](O)CC(=O)[C@@H]1CCCCCC(F)(F)C(=O)O [compound (1)-8, 2,2-difluoro-7-((1R,2R,3R)-3-hydroxy-2-((1E,3S,4S)-3-hydroxy-4-methylnon-1-en-6-yn-1-yl)-5-oxocyclopentyl)heptanoic acid] | 817
